“Also recorded” adds a separate entry of the source.
What was measured:
MDR KB-V1 cells [1] = test: Sulfo-Rhodamine B (SRB) cytotoxicity assay, KB-V1; format: cell-based, human; details: 3-day dose-response
Experimental: In the following experiments, tests were conducted using the human cancer cell lines KB-3-1 and KB-V1. The MDR cancer cells KB-V1 were selected from drug sensitive KB-3-1 cells treated by vinblastine. The cell lines (American Type Culture Collection, MD, USA) were routinely grown in MEM (Gibco, MD, USA) containing 10% fetal bovine serum (FBS) and 1% antibiotic solution (Gibco, MD, USA), and 300 ng/ml of vinblastine for maintenance of drug resistance for KB-V1 cells. Cultures of the cells were maintained in a humidified 5% CO2 incubator.
The color intensity of SRB, positively correlated to number of cell, was estimated by correlating to OD at 515 nm. The concentration of DMSO and ethanol in the drug solvent of APC was 20 wt % and 80 wt % respectively. The concentration of DMSO in each culture sample was ≦0.1%.

[2] = system: human carcinoma KB-3-1 cancer cell line; test: Sulfo-Rhodamine B (SRB) cytotoxicity assay, KB-3-1; format: cell-based; details: drug-sensitive KB-3-1 cells, 72 hours, median-effect plot
Experimental: Assays were carried out in triplicate against human carcinoma KB-3-1 cancer cell line. […] The treatment of KB-3-1 cancer cells lasted for 72 hours and the cell number in each sample was estimated by correlating to optical density (OD) at 515 nm. […] The median dose value was determined from plots of median effects and was equivalent to LD50 (Skehan P.; Storeng R.; Scudiero D.; Monks A.; McMahon J.; Vistica D; Warren J T.; Bokesch H.; Kenney S.; Boyd M R.; J Natl Cancer Inst 1990 82:1107-1112).

KB-3-1 cells [3] = test: Apoptosis study by DNA ladder, KB-3-1; format: cell-based, human; details: 24 hours
Experimental: In this experiment, three groups of KB-3-1 cells were treated for 24 hours at different concentrations (17.26 μM, 34.52 μM & 172.56 μM) of APC. A control group of KB-3-1 cells was treated as negative control for the same amount of time. Approximately 5×10^6 cells from each of the four groups were washed in phosphate buffered saline (PBS) and their genomic DNA was extracted using Apoptotic DNA Ladder Kit-Best. Nr. 1 835 246 (Roche) according to the manufacturer's manual. The extracted DNA was analyzed by electrophoresis in 2% agarose gel containing 0.1% ethidium bromide in tris galacial acetic acid (TAE) buffer for 30 minutes at 99v. DNA bands of the gel were observed and recorded by Multi-Imager (Bio-Rad, California, USA).
(§1) This experiment was a continuation of Experiment 7. Apoptotic studies by DNA ladder was carried out for 24 hours with drug treatment at different concentrations (17.26 μM, 34.52 μM & 172.56 μM) of APC. A total of eight groups of cells were used. 5×10^6 cells were washed in PBS. Their genomic DNA was extracted using Apoptotic DNA Ladder Kit-Best. Nr. 1 835 246 (Roche) according to Manufacturer's manual. DNA was analyzed by electrophoresis in 2% agarose gel containing 0.1% ethidium bromide in TAE buffer (99v, 30 min). DNA bands were observed and recorded by Multi-Imager (Bio-Rad, California, USA).

KB-V1 cells = test: Apoptosis study by DNA ladder, KB-V1; format: cell-based, human; details: 24 hours
Experimental: as §1

KB-3-1 cells [4] = test: Combination Index (CI-isobologram) of APC and doxorubicin, KB-3-1; format: cell-based, human
Text: (§2) In this experiment, the CI-isobologram by Chou and Talalay was used to determine the Combination Index (CI) of APC and doxorubicin. In order to understand the synergistic effect of APC with a conventional cancer drug, a number of combinations of drug concentrations were used in the combination studies. A mutually non-exclusive equation was used to determine the CIs, and the equation is illustrated and explained in the Appendix section below. CI>1, CI=1, and CI<1 indicate antagonism, additive effect, or synergism, respectively. The explanation of the determination of combination indices (CI) is provided in the Appendix section towards the end of the description.
(§3) The Chou and Talalay (Chou T C; Talay P. Adv Enzyme Regul 1984 22:27-55) combination index CI-isobologram equation for two-drug combination is: [formula]
(§4) Firstly, the Din (Median Dose or LD50) and m of each treatment was determined according to the Median-Effect Plot. […] Combination Indices (CI) were calculated at various fractional kill (fa).
(§5) The CI-isobologram by Chou and Talalay was used to determine the Combination Indices (CI) of APC and doxorubicin. […] The mutually non-exclusive equations were used to determine the CIs and each CI was calculated from the mean affected fraction at each drug ratio concentration.

MDR KB-V1 cells [5] = test: Combination Index (CI-isobologram) of APC and doxorubicin, KB-V1; format: cell-based, human; details: APC 2.0219 μM to 129.3996 μM with doxorubicin, particularly fractional kill greater than 50%
Text: as §2, §3, §4, §5

MDR1 mRNA = test: Reverse transcription-PCR of MDR1; format: cell-based, human; details: KB-3-1 and KB-V1 cells, 1× and 2× dose of LD50
Experimental: (§6) 1 μg of total RNA isolated from cells using High Pure™ RNA Isolation Kits (Roche) was incubated with 100 ng random primers (Gibco BRL) and DEPC-treated water (total volume 10 μl) for 10 min at 65° C., then for 5 min on ice. Reverse transcription mixture contained 4 μl of 5× reaction buffer (50 mM Tris-HCl, 100 mM NaCl, 1 mM EDTA, 10 mM DTE, 0.05% polydocanol v/v, 50% glycerol v/v, pH 8.4), 2 μl 10 mM dNTP, 2 μl 100 mM dithiothreitol and 1 μl 50 units/μl Expand™ Reverse Transcriptase (Roche). The reaction lasted for 1.5 hours at 42° C. PCR amplifications were carried out using Expand™ Long Template PCR System (Roche). The primers used were cDNA sequences of p-glycoprotein (P-gp) SEQ ID NO. 1 (sense strand) and SEQ ID NO. 2 (anti-sense strand); cDNA sequences of β-actin SEQ ID NO. 3 (sense strand) and SEQ ID NO. 4 (anti-sense strand). […] of [α-^32P]dATP was added to 25 μl amplification reaction mix. The PCR was performed in a Gene Cycler™ (Bio-Rad) for 27 cycles, consisting of 1 min at 94° C., 1 min at 57° C. and 1 min at 72° C. The samples were heated for 5 min at 94° C. before the first cycle, and the extension time was lengthened to 10 min during the last cycle. PCR products resulted therefrom were size-fractionated on 10% polyacrylamide gel. Autoradiography was carried out with BioMax film (Kodak). Drug-sensitive KB-3-1 was used as control experiments. […]

P-glycoprotein (P-gp) = test: Western blotting of P-gp; format: cell-based, human; details: KB-3-1 and KB-V1 cells, 1× and 2× dose of LD50
Experimental: (§7) For protein analysis of P-gp and actin, cells were lysed in ice-cold lysis buffer (1% sodium deoxycholate, 0.1% SDS, 1% Triton X-100, 2 mM phenylmethylsulphonyl fluoride, 1% aprotinin). Total lysates were subjected to SDS/PAGE and electrotransferred to nitrocellulose membranes (Bio-Rad). Membranes were then incubated with anti-P-gp or anti-β-actin antibody (Calbiochem) in blocking buffer (10 mM Tris pH7.5, 100 mM NaCl, 0.1% Tween 20, 5% non-fat dry milk) for 1 hour at room temperature before incubation with horseradish-peroxidase-conjugated anti-(rabbit IgG) or anti-(mouse IgG) antibody (Gibco BRL) for 1 hour at room temperature. Immunobinding was detected by the ECL method (Amersham). β-actin polyclonal antibody (Oncogene Science, Uniondale, N.Y., USA) was used as internal standard. Drug-sensitive KB-3-1 was used as control experiments.

β-Actin = test: Reverse transcription-PCR of β-Actin (internal standard); format: cell-based, human; details: KB-3-1 and KB-V1 cells, 1× and 2× dose of LD50
Experimental: as §6

actin = test: Western blotting of actin; format: cell-based, human; details: KB-3-1 and KB-V1 cells, 1× and 2× dose of LD50
Experimental: as §7

KB-3-1 cells [6] = test: Doxorubicin accumulation assay (flow cytometry), KB-3-1; format: cell-based, human; details: pre-treatment, then 2 μM doxorubicin 30 min
Experimental: (§8) Data was collected with CellQuest Software and analysed with ModFitLT V2.0. Mean fluorescence intensities of 1×10^4 drug-treated cells were quantified and compared with the APC untreated cells. […] A negative control test was also performed.

MDR KB-V1 cells [7] = test: Doxorubicin accumulation assay (flow cytometry), KB-V1; format: cell-based, human
Experimental: as §8

Row | SMILES | LD50 (MDR KB-V1 cells [1]) [µM] | LD50 [2] [µM] | DNA ladder, state of DNA (KB-3-1 cells [3]; 17.26 μM) | apoptosis (DNA fragmentation, DNA ladder) (KB-3-1 cells [3]; 172.6 μM) | DNA ladder, state of DNA (KB-V1 cells; 17.26 μM) | DNA ladder, state of DNA (KB-V1 cells; 172.6 μM) | synergism with doxorubicin (KB-3-1 cells [4]; APC 2.0219 μM to 129.3996 μM with doxorubicin) | Combination Index (CI) (KB-3-1 cells [4]; drug combination C (doxorubicin 0.0431 μM, APC 129.3996 μM), all fractional kill) | synergism with doxorubicin (MDR KB-V1 cells [5]) | MDR1 mRNA level (MDR1 mRNA) | level of P-gp proteins (P-glycoprotein (P-gp)) | β-Actin mRNA level (β-Actin) | level of actin (actin) | accumulation of doxorubicin in cells (KB-3-1 cells [6]) | accumulation of doxorubicin in cells (MDR KB-V1 cells [7]; KB-V1 cells, pre-treatment, then 2 μM doxorubicin 30 min) | increase of doxorubicin accumulation (MDR KB-V1 cells [7]; MDR KB-V1 cells, 6 hours incubation at LD50, then 2 μM doxorubicin 30 min)
1 | COc1cccc2c1C(=O)c1c(O)c3c(c(O)c1C2=O)C[C@@](O)(C(=O)CO)C[C@@H]3O[C@H]1C[C@H](N)[C@H](O)[C@H](C)O1 [doxorubicin, reference compound] | 3.0510 ± 0.2846 | – | – | – | – | – | – | – | – | – | – | – | – | – | – | –
2 | C/C=C(/C)C(=O)OC1C(OC(C)=O)c2c(ccc3ccc(=O)oc23)OC1(C)C (stereo not drawn) [APC, cis-3′-angeloyl-4′-acetoxy-khellactone] | 17.2656 ± 8.2441 | 41.9153 ± 2.8016 | little affected | significantly more apoptosis | slightly cut | cut in larger extent | relatively low synergism; also recorded: little or no synergistic interactions | greater than 1 | relatively high synergistic interactions | reduced significantly | lower | not affected | not affected | more doxorubicin accumulated | substantially higher accumulation of doxorubicin | approximately 25%
